From ChEMBL document CHEMBL4507316 (2021)

Columns and labels:
[1] = biological target: Tyrosine-protein kinase Blk (Homo sapiens) (UniProt P51451); assay: BLK ProQinase selectivity panel; details: Compound concentration 1.0 uM
[2] = biological target: Protein-tyrosine kinase 6 (Homo sapiens) (UniProt Q13882); assay: BRK ProQinase selectivity panel; details: Compound concentration 1.0 uM
[3] = biological target: Casein kinase II subunit alpha' (Homo sapiens) (UniProt P19784); assay: CK2-alpha2 ProQinase selectivity panel; details: Compound concentration 1.0 uM
[4] = biological target: Dual specificity protein kinase CLK1 (Homo sapiens) (UniProt P49759); assay: CLK1 ProQinase selectivity panel; details: Compound concentration 1.0 uM
[5] = biological target: Discoidin domain-containing receptor 2 (Homo sapiens) (UniProt Q16832); assay: DDR2 ProQinase selectivity panel; details: Compound concentration 1.0 uM
[6] = biological target: Dual specificity tyrosine-phosphorylation-regulated kinase 1A (Homo sapiens) (UniProt Q13627); assay: DYRK1A ProQinase selectivity panel; details: Compound concentration 1.0 uM
[7] = biological target: Eukaryotic translation initiation factor 2-alpha kinase 1 (Homo sapiens) (UniProt Q9BQI3); assay: HRI ProQinase selectivity panel; details: Compound concentration 1.0 uM
[8] = test system: Dual specificity mitogen-activated protein kinase kinase 6 (Homo sapiens), P52564 [S207D,T211D]; assay: MKK6 S207D/T211D ProQinase selectivity panel; details: Compound concentration 1.0 uM
[9] = biological target: Protein kinase C iota type (Homo sapiens) (UniProt P41743); assay: PKC-iota ProQinase selectivity panel; details: Compound concentration 1.0 uM
[10] = biological target: cAMP-dependent protein kinase catalytic subunit PRKX (Homo sapiens) (UniProt P51817); assay: PRKX ProQinase selectivity panel; details: Compound concentration 1.0 uM
[11] = biological target: Ribosomal protein S6 kinase alpha-1 (Homo sapiens) (UniProt Q15418); assay: RPS6KA1 ProQinase selectivity panel; details: Compound concentration 1.0 uM
[12] = biological target: Ribosomal protein S6 kinase alpha-4 (Homo sapiens) (UniProt O75676); assay: RPS6KA4 ProQinase selectivity panel; details: Compound concentration 1.0 uM
[13] = biological target: Ribosomal protein S6 kinase alpha-5 (Homo sapiens) (UniProt O75582); assay: RPS6KA5 ProQinase selectivity panel; details: Compound concentration 1.0 uM
[14] = biological target: Tyrosine-protein kinase Srms (Homo sapiens) (UniProt Q9H3Y6); assay: SRMS ProQinase selectivity panel; details: Compound concentration 1.0 uM
[15] = biological target: Tyrosine-protein kinase Tec (Homo sapiens) (UniProt P42680); assay: TEC ProQinase selectivity panel; details: Compound concentration 1.0 uM
[16] = biological target: Tyrosine-protein kinase TXK (Homo sapiens) (UniProt P42681); assay: TXK ProQinase selectivity panel; details: Compound concentration 1.0 uM
[17] = biological target: Sodium-dependent serotonin transporter (Homo sapiens) (UniProt P31645); details: Compound concentration 10.0 uM
Sodium-dependent serotonin transporter (Homo sapiens), sequence (P31645 whole entry, looked up): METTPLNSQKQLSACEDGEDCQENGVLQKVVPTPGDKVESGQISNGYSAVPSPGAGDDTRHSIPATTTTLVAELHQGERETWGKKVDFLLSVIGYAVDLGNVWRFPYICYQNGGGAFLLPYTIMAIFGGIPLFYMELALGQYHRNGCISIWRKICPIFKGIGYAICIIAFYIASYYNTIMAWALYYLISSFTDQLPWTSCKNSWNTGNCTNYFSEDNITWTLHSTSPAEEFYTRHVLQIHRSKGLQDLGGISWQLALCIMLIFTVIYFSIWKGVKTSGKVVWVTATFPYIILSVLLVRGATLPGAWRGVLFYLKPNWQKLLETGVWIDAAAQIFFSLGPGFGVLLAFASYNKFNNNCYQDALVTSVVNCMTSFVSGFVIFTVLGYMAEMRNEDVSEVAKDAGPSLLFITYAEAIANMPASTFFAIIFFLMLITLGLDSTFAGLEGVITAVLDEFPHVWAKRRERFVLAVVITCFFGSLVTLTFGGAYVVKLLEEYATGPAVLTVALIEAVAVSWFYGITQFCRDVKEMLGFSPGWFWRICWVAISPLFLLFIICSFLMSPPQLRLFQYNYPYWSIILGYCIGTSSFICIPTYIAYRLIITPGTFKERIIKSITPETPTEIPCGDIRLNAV

Tyrosine-protein kinase Tec (Homo sapiens), sequence (P42680 whole entry): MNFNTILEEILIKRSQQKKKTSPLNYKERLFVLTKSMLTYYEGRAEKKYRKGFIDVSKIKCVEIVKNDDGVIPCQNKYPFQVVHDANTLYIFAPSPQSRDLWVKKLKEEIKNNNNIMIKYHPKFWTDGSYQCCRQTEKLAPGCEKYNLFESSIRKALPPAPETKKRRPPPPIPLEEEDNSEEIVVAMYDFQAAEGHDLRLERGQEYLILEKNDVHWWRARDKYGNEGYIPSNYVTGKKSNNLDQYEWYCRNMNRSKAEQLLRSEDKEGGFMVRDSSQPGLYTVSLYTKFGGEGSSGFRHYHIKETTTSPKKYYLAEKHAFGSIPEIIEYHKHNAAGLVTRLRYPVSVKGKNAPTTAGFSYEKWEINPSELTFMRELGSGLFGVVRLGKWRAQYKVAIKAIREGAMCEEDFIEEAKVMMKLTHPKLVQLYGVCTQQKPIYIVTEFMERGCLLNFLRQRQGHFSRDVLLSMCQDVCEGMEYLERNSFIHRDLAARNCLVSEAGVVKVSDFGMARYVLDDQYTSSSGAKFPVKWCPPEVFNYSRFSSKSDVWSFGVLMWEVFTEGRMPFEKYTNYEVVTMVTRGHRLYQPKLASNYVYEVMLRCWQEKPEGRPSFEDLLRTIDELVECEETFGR
Protein kinase C iota type (Homo sapiens), sequence (P41743 whole entry): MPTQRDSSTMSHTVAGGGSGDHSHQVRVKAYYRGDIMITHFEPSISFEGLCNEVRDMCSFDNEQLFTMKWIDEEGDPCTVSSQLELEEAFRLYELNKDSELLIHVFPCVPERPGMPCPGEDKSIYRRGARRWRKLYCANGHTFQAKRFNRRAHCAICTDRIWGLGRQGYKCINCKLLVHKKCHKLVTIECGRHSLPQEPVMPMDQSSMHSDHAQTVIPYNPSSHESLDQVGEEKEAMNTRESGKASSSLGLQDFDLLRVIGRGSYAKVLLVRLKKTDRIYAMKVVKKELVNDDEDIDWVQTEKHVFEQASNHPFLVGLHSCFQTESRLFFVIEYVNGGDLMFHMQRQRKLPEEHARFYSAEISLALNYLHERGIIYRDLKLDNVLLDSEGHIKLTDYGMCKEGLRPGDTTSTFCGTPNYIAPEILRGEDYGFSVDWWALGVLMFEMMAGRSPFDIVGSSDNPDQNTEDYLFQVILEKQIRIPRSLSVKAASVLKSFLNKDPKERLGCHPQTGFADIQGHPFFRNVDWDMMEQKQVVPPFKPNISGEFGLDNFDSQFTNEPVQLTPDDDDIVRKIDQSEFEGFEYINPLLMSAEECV
Tyrosine-protein kinase TXK (Homo sapiens), sequence (P42681 whole entry): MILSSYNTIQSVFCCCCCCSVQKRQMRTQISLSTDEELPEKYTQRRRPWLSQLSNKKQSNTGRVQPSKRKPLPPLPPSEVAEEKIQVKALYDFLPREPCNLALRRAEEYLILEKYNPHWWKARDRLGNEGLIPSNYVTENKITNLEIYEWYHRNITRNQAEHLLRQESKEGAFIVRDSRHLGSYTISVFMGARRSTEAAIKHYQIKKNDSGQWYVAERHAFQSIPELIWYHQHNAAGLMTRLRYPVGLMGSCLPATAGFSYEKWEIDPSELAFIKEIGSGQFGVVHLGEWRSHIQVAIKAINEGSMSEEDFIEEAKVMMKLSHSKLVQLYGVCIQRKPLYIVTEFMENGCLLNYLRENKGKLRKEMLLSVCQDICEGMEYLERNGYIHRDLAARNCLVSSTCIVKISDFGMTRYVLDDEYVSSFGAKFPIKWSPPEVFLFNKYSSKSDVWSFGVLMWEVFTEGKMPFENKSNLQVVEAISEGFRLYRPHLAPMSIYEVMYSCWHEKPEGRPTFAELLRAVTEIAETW
Dual specificity protein kinase CLK1 (Homo sapiens), sequence (P49759 whole entry, looked up, the tested form may be a part): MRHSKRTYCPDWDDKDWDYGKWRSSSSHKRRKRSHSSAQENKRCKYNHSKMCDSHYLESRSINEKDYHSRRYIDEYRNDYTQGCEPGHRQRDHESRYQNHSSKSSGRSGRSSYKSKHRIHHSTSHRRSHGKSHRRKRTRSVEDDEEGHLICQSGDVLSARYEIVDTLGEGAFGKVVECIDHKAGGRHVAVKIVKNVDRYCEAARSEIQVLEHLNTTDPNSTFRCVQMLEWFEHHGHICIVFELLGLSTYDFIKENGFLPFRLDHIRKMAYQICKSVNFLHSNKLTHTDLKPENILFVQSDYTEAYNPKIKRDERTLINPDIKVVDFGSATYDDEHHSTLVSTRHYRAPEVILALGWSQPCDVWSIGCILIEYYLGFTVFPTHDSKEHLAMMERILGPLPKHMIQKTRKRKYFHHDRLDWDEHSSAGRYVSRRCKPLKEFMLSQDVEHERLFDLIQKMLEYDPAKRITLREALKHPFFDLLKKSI
Ribosomal protein S6 kinase alpha-1 (Homo sapiens), sequence (Q15418 whole entry): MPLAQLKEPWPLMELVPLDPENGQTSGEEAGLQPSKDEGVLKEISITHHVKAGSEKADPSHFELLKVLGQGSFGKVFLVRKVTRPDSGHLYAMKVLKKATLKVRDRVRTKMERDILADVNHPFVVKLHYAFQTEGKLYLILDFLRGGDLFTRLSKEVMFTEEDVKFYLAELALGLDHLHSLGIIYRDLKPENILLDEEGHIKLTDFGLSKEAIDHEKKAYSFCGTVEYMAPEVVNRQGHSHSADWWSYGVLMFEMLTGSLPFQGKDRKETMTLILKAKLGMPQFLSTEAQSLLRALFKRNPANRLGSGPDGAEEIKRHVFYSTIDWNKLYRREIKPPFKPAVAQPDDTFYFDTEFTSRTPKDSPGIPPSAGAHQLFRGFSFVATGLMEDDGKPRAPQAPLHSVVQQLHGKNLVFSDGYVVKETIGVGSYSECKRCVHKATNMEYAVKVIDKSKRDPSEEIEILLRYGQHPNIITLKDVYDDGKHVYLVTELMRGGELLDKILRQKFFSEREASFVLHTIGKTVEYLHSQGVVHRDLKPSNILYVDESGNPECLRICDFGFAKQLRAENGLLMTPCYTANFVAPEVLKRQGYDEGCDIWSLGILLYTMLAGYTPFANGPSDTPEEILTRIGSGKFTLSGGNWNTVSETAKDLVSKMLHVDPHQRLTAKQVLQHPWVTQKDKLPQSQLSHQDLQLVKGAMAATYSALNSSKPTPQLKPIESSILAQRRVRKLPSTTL
Casein kinase II subunit alpha' (Homo sapiens), sequence (P19784 whole entry, looked up): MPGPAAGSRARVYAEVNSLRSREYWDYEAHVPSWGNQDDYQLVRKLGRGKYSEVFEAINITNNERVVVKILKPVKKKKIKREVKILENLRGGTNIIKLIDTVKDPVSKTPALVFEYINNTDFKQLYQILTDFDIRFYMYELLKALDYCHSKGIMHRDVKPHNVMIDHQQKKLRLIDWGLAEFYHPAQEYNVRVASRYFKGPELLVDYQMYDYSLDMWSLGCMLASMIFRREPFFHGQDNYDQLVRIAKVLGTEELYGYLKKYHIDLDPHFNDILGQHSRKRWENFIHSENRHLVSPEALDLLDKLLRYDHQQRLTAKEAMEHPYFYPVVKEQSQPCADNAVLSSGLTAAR
Tyrosine-protein kinase Srms (Homo sapiens), sequence (Q9H3Y6 whole entry): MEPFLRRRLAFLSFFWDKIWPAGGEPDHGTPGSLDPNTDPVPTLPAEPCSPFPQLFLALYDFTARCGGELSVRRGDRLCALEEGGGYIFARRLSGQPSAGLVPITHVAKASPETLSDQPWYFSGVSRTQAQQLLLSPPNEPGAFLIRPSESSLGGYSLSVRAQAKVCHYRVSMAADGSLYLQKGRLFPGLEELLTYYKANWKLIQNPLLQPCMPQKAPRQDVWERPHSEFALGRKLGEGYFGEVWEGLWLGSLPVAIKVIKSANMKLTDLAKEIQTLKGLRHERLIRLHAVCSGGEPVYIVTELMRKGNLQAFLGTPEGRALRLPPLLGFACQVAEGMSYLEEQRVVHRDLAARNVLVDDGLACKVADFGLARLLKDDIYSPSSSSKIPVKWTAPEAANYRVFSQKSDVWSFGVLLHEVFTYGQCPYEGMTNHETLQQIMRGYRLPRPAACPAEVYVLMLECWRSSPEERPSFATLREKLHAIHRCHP
Dual specificity mitogen-activated protein kinase kinase 6 (Homo sapiens), P52564 [S207D,T211D], sequence (P52564 whole entry S207D/T211D): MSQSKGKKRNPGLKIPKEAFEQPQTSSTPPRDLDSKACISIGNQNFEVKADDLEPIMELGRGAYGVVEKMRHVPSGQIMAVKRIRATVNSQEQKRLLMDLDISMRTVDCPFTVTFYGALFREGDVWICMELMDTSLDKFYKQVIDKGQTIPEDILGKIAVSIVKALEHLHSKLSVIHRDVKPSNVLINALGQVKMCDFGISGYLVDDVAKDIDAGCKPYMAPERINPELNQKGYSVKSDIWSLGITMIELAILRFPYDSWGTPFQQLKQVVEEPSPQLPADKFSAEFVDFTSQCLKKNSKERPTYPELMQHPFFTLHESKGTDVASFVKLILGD

O=C1c2ccc(Nc3ccc(F)cc3F)cc2CCc2ccc(OC[C@H](O)CO)cc21 [Skepinone-L]
inactive: % Residual activity with Skepinone-L [1] 107% | % Residual activity with Skepinone-L [2] 84% | % Residual activity with Skepinone-L [3] 87% | % Residual activity with Skepinone-L [4] 106% | % Residual activity with Skepinone-L [5] 102% | % Residual activity with Skepinone-L [6] 96% | % Residual activity with Skepinone-L [7] 106% | % Residual activity with Skepinone-L [8] 120% | % Residual activity with Skepinone-L [9] 91% | % Residual activity with Skepinone-L [10] 79% | % Residual activity with Skepinone-L [11] 89% | % Residual activity with Skepinone-L [12] 107% | % Residual activity with Skepinone-L [13] 77% | % Residual activity with Skepinone-L [14] 95% | % Residual activity with Skepinone-L [15] 115% | % Residual activity with Skepinone-L [16] 93% | inhibition [17] 20.7%
